Source: EP4818312A2

Settings: from C=C[C@@H]1OC(c2ccc(OC)cc2)O[C@]1(C)CC[C@H](CC(=O)O[C@H](/C(C)=C/I)[C@@H](C)C=C)O[Si](C)(C)C(C)(C)C; rcm bond; Hoveyda-Grubbs 2nd generation; toluene; 6.52 mM; 110.0 °C; 5.0 h

In the case of `COc1ccc(C2O[C@H]3C=C[C@H](C)[C@@H](/C(C)=C/I)OC(=O)C[C@H](O[Si](C)(C)C(C)(C)C)CC[C@@]3(C)O2)cc1` (stereo partly shown), the ring closure, yield of all isomers is reported as 50%.
